Experimental data: patent US20210283092A1, “METHODS AND USES OF […] DERIVATIVES” (priority 2018, published 2021)
Entries after “also recorded” stand apart in the source; their conditions may differ.

Key:
[1] = tested on: human neutrophils stimulated with MSU; assay: MSU-induced calcium mobilization in human neutrophils (Fura-2); assay type: cell-based; conditions: for effect on MSU-induced calcium levels: 10 μM 28a, 39, 47a, 89, 1 μM 14, 3 μM 43, TPO at indicated concentrations; for lowest concentration significantly inhibiting the MSU-induced increase in intracellular calcium: 1 mg/ml MSU, 30 min pre-incubation; for type of dose response, cytoplasmic calcium: 0.01 to 10 μM
Protocol: Neutrophils were isolated from venous blood of healthy adult volunteers. Briefly, venous blood was obtained in tubes containing isocitrate, red blood cells were sedimented in 2% dextran and neutrophils were aseptically purified by centrifugation on Ficoll-Paque cushions. Contaminating erythrocytes were removed by hypotonic lysis and neutrophils were resuspended in Mg^2+-free HBSS containing 1.6 mM of CaCl2.
(FIG. 7D), D1=(28a) (FIGS. 7E and 7J), D2=(39) (FIG. 7F), D3=(47a) (FIGS. 7G and 7J), D4=(89) (FIG. 7H) prior to the addition of MSU (1 mg/ml).
The intracellular calcium concentration was determined with a spectrofluorometer and is expressed as the area under the curve (from the MSU injection up to 100 sec).
Changes in cytoplasmic calcium were then measured after the addition of MSU or HBSS (the negative control) using two excitation wavelengths at 340 and 380 nm and an emission wavelength of 510 nm. The free internal calcium concentration was estimated from the ratio of the fluorescence values obtained at 340 and 380 nm. The results are calculated as the area under the curve of the intracellular calcium concentration as a function of time (0-100 sec relative to stimulus addition).
Since one of the earliest molecular events in neutrophils that is initiated by MSU is the mobilization of intracellular calcium stores, the effect of (91) (CCl), (43) and (47a) was assessed on this early signalling event. Briefly, and as described in further detail above, human neutrophils were incubated with the fluorescent calcium indicator Fura-2 prior to incubation with a range of concentrations of (91) (CCl), (43) or (47a) and stimulated with MSU. Fura-2 monitors the increase in cytoplasmic calcium caused by its release from intracellular stores.

[2] = Plasma concentration and half-life in mice after subcutaneous injection
Protocol: The concentration of the compound in the plasma (FIGS. 10A and B) was determined by mass spectrometry. The concentration of (91) (CCl) or CH-35 (43) is expressed as the means of the amount of (91) (CCl) or CH-35 (43) measured in the plasma (ng/ml) of 5 mice harvested at the same time point.

[3] = tested on: human neutrophils stimulated with fMLP; assay: fMLP-induced increase in cytoplasmic calcium in human neutrophils; assay type: cell-based; conditions: 10 μM compound, 10^−7 M fMLP
Protocol: The intracellular calcium concentration was determined with a spectrofluorometer and is expressed as the area under the curve.
To assess the specificity of CCl (91) towards neutrophil activation by MSU, it was determined whether CCl (91) was able to inhibit neutrophil responses towards an unrelated stimulus. A bacterial stimulus was chosen because neutrophil activation in response to this stimulus affects the survival of the host. Briefly, human neutrophils were incubated with the 10 μM CCl (91) prior to the activation with the bacterial peptide fMLF. […] In the presence of CCl (91), however, the cytoplasmic calcium response was unaffected.

[4] = tested on: human neutrophils stimulated with MSU; assay: Superoxide production by human neutrophils (cytochrome C reduction); assay type: cell-based; conditions: for lowest concentration inhibiting MSU-induced superoxide production: 1 mg/ml MSU
Protocol: The results are expressed as a ratio of the superoxide produced by the MSU control.
Superoxide production was measured using the reduction of cytochrome C assay. The difference between the optical density readings at 550 nm and 540 nm read within the first 10 minutes was multiplied by the extinction coefficient of cytochrome C to obtain the number of nmol O2 produced by 1×10^6 cells. The results are expressed as nmol O2/1×10^6 cells/ml.
An additional neutrophil effector function that is calcium-dependent, known to be activated by MSU and that can cause damage to the inflamed joint, is the production of ROS.

[5] = tested on: MSU-induced leukocyte recruitment to the dorsal air-pouch; assay: Air-pouch model, compound given 5 min prior to MSU; assay type: in vivo, CD-1 mice
Protocol: (§1) An air-pouch was generated on the dorsum of mice over a period of seven days by injecting air subcutaneously. […] Seven hours after the administration of MSU, the exudate in the air pouches was harvested by two flushes with 2 ml and one with 1 ml of PBS+0.5 M EDTA and the number of recruited leukocytes determined by flow cytometry. Leukocytes were stained with an anti-CD45 and anti-Ly6 G antibody.

[6] = tested on: atherosclerosis in LDLR KO mice; assay: Mouse model of atherosclerosis, high-fat diet; assay type: in vivo
Protocol: LDLR KO mice were randomly divided into 4 groups and either fed a control (CD) diet (group 1 & 2) or high-fat (group 3 & 4) diet. The high-fat (HF) diet contained 0.2% total cholesterol, 21% total fat by weight (42% kcal from fat), >60% of total fatty acids) and was high in sucrose (34% by weight). The animals and their feed were weighed every week.
Mice in group 2 & 4 were administered a dose of 0.5 μmol/kg CCl subcutaneously (s.c), 3 times a week for 8 weeks.
Blood was drawn from mice after the 8-week diet. Serum was prepared from the drawn blood and frozen until analysis. Serum triglycerides and cholesterol were measured in serum of mice by our Multidisciplinary and Microbiology Laboratory Service.
The aortic lesion ‘en face’ assay and Sudan IV staining was performed on aortas harvested from all mice. The percent lipid stained area in the aortic branch and the descending aorta was compared between mice using the ‘region of interest’ tool in ImageJ.
Blood was drawn from mice after the 8-week diet. Serum was prepared from the drawn blood and frozen until analysis. The levels of cytokines in the serum were measured by Luminex assay. The cytokines assayed were Eotaxin (CCL11), CCL21, G-CSF (CSF-3), RANKL, VEGF-A, IL-1 beta, IL-6 & MCP-1 (CCL2). These cytokines were chosen based on a cytokine signature that was reported to reflect the development of atherosclerosis in ApoE KO mice. The LDLR KO model was used since the inflammatory aspect of atherosclerosis is better represented in this model.

[7] = tested on: MSU-induced leukocyte recruitment to the dorsal air-pouch; assay: Air-pouch model, compound given 1.5 hours after MSU; assay type: in vivo, mice; conditions: for lowest dose significantly dampening MSU-induced leukocyte recruitment: subcutaneous 1.5 hours after MSU
Protocol: as §1

[8] = tested on: human neutrophils stimulated with MSU; assay: IL-1 release by TNF-α primed human neutrophils (ELISA); assay type: cell-based; conditions: 1 mg/ml MSU, 3 h
Protocol: (§2) Extracellular CXCL8/IL-8 or IL-1β were quantified by ELISA (Invitrogen). All samples were measured in duplicate.
The production and secretion of mature IL-1 requires two stimuli. Human neutrophils were, therefore, primed with TNF-α prior to stimulation with MSU. […] (FIG. 8H-J).

[9] = Acute toxicity study in rats; assay type: in vivo
[10] = Concentration in circulating leukocytes of mice after subcutaneous injection
Protocol: Blood was harvested by cardiac puncture and centrifuged to obtain circulating leukocytes. The concentration of the compound in the leukocytes (FIGS. 11A and B) was determined by mass spectrometry. The concentration of (91) (CCl) or CH-35 (43) is expressed as the means of the amount of (91) (CCl) or CH-35 (43) measured in circulating leukocytes (ng/ml) of 5 mice harvested at the same time point.

[11] = tested on: human neutrophils stimulated with MSU; assay: CXCL8/IL-8 release by human neutrophils (ELISA); assay type: cell-based; conditions: for lowest concentration giving significant decrease in MSU-induced release of IL-8: 1 mg/ml MSU, 3 h
Protocol: as §2
In addition, since IL-1 induces the expression of adhesion molecules on endothelial cells as well as the synthesis of pro-inflammatory cytokines, which together promote a massive recruitment of neutrophils, the ability of CCl (91) and CH-35 (43) to dampen the production of IL-1 was also assessed.

[12] = tested on: MSU-induced leukocyte recruitment to the dorsal air-pouch; conditions: literature value (Chia et al. 2008); cited from earlier work
[13] = 0.5 μmol/kg s.c. 3 times a week, 8 weeks, HF diet
[14] = en face assay, Sudan IV, HF+CCl

## COc1cc2c(c(OC)c1OC)-c1ccc(SC)c(=O)cc1[C@@H](NC(C)=O)CC2 [(39), N-[(7S)-1,2,3-trimethoxy-10-methylsulfanylo-9-oxo-5,6,7,9-tetrahydrobenzo [α]heptalen-7-yl]acetamide]
[1]
  effect on MSU-induced calcium levels: neutrophil-inhibitory effects

## CCOc1cc2c(c(OC)c1OC)-c1ccc(SC)c(=O)cc1[C@@H](NC(=O)OC)CC2 [(91)]
[2]; 5 μmol/kg subcutaneous, mice
  persistence in the plasma: at least 2 hours
[2]; mouse, in vivo, sc
  fraction of peak plasma concentration by 60 minutes: less than ¼
  peak plasma concentration: 80 ng/mL
  time of peak plasma concentration: 15 min
[2]; mouse, in vivo, sc, 5 umol/kg
  half-life: 13.3 min
[3]
  cytoplasmic calcium response to fMLF in presence of compound: unaffected
[4]
  lowest concentration inhibiting MSU-induced superoxide production: 0.1 µM
[4]; versus colchicine
  fold lower concentration than colchicine for inhibiting superoxide production: about 10 fold
[5]; mouse, in vivo
  fold lower dose than colchicine inhibiting leukocyte recruitment: ~10 fold
[5]; mouse, in vivo, sc
  dose inhibiting MSU-induced leukocyte recruitment: 0.5 µmol/kg
[6]; 0.5 μmol/kg s.c. 3 times a week, 8 weeks
  behaviour and tolerability: did not show any signs of suffering
[6]; [13]
  serum cholesterol versus HF diet alone: lower
  serum triglycerides versus HF diet alone: lower
[6]; Luminex, HF diet 8 weeks
  effect on serum cytokine levels: no significant effect
[6]; [14]
  percent of total area of the aortic arch covered by lesions versus HF diet: smaller percent
  percent of total area of the descending aorta covered by lesions versus HF diet: smaller percent
[6]; majority of mice in the HF+CCl group
  percent of total area of the descending aorta covered by lesions: less than 1%
[7]; mouse, in vivo
  fold lower dose than effective dose of colchicine inhibiting leukocyte recruitment: about 10 fold
[7]
  lowest dose significantly dampening MSU-induced leukocyte recruitment: 0.5 µmol/kg
[1]; 10 μM
  effect on MSU-induced increase in cytoplasmic calcium at 10 μM: does not have a significant effect
[1]
  lowest concentration significantly inhibiting the MSU-induced increase in intracellular calcium: 0.1 µM
  type of dose response, cytoplasmic calcium: non-monotonic dose response
[1]; versus colchicine
  fold lower concentration than colchicine for inhibiting calcium mobilization: about 100 fold
[8]
  concentration at which MSU-induced IL-1 production is diminished (threshold): 0.1 µM
[9]; acute toxicity study in rats
  toxicity compared with colchicine: less toxic than colchicine
[9]; rats
  maximal tolerable dose relative to colchicine: 3 fold
[10]; mouse, in vivo, sc
  time of peak concentration in circulating leukocytes: 15 min
[11]
  lowest concentration giving significant decrease in MSU-induced release of IL-8: 0.1 µM
[11]; versus colchicine
  fold lower concentration than colchicine for inhibiting release of IL-8: about 10 fold

## COc1cc2c(c(OCc3ccccc3Cl)c1OC)-c1ccc(OC)c(=O)cc1[C@@H](NC(C)=O)CC2 [(14), N-[(7S)-2,3,10-trimethoxy-9-oxo-1-((phenyl(2-chloro))methoxy)-5,6,7,9-tetrahydrobenzo[α]heptalen-7-yl] acetamide]
[1]
  effect on MSU-induced calcium levels: neutrophil-inhibitory effects

## COC(=O)N(C)[C@H]1CCc2cc(OC)c(OC)c(OC)c2-c2ccc(SC)c(=O)cc21 [TPO, reference compound]
[1]
  effect on MSU-induced calcium levels: inhibition at higher concentrations

## N-[(7S)-1,2,3,10-tetramethoxy-9-oxo-5,6,7,9-tetrahydrobenzo[α]heptalen-7-yl] acetamide [Colchicine, reference compound]
[12]
  dose that effectively dampens MSU-induced leukocyte recruitment in mice: 5 µmol/kg
[4]
  lowest concentration inhibiting MSU-induced superoxide production: 1 µM
[5]; 0.5 μmol/kg, 5 min prior to MSU
  effect on MSU-induced leukocyte recruitment at 0.5 μmol/kg: lost its potency to significantly inhibit
[5]; subcutaneous 5 min prior to MSU, 7 hours
  dose inhibiting MSU-induced leukocyte recruitment: 5 µmol/kg
[7]; 0.5 μmol/kg, after MSU
  effect on MSU-induced leukocyte recruitment at 0.5 μmol/kg: no longer able to significantly inhibit; also recorded: loses its anti-inflammatory activity
[1]
  lowest concentration significantly inhibiting the MSU-induced increase in intracellular calcium: 10 µM
[8]
  concentration at which MSU-induced IL-1 production is diminished (threshold): 10 µM
[11]
  lowest concentration giving significant decrease in MSU-induced release of IL-8: 1 µM

## COC(=O)N[C@H]1CCc2cc(O)c(OC)c(OC)c2-c2ccc(SC)c(=O)cc21 [(89)]
[1]
  effect on MSU-induced calcium levels: exception

## CCCOc1cc2c(c(OC)c1OC)-c1ccc(SC)c(=O)cc1[C@@H](NC(C)=O)CC2 [(43), N-[(7S)-3-propoxy-1,2-dimethoxy-10-methylsulfanyl-9-oxo-5,6,7,9-tetrahydrobenzo [α]heptalen-7-yl]acetamide]
[2]; 5 μmol/kg subcutaneous, mice
  time after injection at which plasma level dropped to undetectable: about 50 minutes
  time of peak plasma concentration: 15 min
[4]
  lowest concentration inhibiting MSU-induced superoxide production: 0.1 µM
[7]
  lowest dose significantly dampening MSU-induced leukocyte recruitment: 2.5 µmol/kg
[1]
  effect on MSU-induced calcium levels: neutrophil-inhibitory effects
  lowest concentration significantly inhibiting the MSU-induced increase in intracellular calcium: 0.1 µM
  type of dose response, cytoplasmic calcium: classical monotonic dose response
[8]
  concentration at which MSU-induced IL-1 production is diminished (threshold): 1 µM
[10]; 5 μmol/kg subcutaneous, mice
  time of peak concentration in circulating leukocytes: 15 min
[11]
  lowest concentration giving significant decrease in MSU-induced release of IL-8: 0.1 µM
